Values of other authors, collected in patent US20120003325A1, “USE OF HELIUM-OXYGEN GAS MIXTURES FOR TREATING PULMONARY ARTERIAL HYPERTENSION” (BAYER SCHERING PHARMA AKTIENGESELLSCHAFT, priority 2008, published 2012).

Conditions: oil-water mixture

SMILES: [He] [helium]
- solubility relative to the solubility of oxygen or nitrogen: 30%
